Experimental findings from ChEMBL document CHEMBL1140178, “Design, synthesis, and biological evaluation of novel constrained meta-substituted phenyl propanoic acids as peroxisome proliferator-activated receptor alpha and gamma dual agonists” (J Med Chem, 2008) are described below.

The target in data set [1] is T1, Peroxisome proliferator-activated receptor alpha (Homo sapiens) (UniProt Q07869).
T1 sequence (whole entry): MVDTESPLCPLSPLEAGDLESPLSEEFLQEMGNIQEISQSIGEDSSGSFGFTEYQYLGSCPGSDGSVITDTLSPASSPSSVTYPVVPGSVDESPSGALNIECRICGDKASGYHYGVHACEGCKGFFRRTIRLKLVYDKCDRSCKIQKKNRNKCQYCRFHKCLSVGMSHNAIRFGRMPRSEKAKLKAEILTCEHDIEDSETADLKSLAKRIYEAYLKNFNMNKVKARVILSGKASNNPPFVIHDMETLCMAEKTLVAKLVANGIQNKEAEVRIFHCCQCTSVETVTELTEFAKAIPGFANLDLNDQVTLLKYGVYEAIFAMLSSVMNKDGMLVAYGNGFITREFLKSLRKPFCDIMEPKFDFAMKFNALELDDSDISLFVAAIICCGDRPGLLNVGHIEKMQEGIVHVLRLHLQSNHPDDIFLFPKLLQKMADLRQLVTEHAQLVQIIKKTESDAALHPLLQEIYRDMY
The data set can be described thus: Agonist activity at human PPARalpha ligand binding domain expressed in african green monkey CV1 cells co-transfected with fused Gal4-DBD by transactivation assay relative to gemfibrozil. Format: cell-based. Conditions: CV-1.

Data set [2] deals with T2, Peroxisome proliferator-activated receptor gamma (Homo sapiens, UniProt P37231).
T2 sequence (P37231 whole entry): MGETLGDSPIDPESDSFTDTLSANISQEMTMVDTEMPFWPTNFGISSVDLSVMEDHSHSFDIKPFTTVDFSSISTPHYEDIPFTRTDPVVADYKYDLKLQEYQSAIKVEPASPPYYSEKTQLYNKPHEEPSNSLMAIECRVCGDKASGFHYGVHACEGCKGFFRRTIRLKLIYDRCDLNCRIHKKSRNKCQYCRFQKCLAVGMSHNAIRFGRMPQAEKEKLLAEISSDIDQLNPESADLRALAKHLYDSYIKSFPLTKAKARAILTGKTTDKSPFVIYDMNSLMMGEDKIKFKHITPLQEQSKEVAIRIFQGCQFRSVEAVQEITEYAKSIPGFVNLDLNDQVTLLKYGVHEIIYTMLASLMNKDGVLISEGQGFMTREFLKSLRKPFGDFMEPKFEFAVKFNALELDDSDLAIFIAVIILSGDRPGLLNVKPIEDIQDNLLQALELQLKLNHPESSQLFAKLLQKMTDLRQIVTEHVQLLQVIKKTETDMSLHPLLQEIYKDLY
Description: Agonist activity at human PPARgamma ligand binding domain expressed in african green monkey CV1 cells co-transfected with fused Gal4-DBD by transactivation assay

The target in data set [3] is T3, Peroxisome proliferator-activated receptor alpha (Homo sapiens, UniProt Q07869).
T3 sequence (Q07869 whole entry): T1 sequence (whole entry)
Kind of data set: (§1) Agonist activity at human PPARalpha ligand binding domain expressed in african green monkey CV1 cells co-transfected with fused Gal4-DBD by transactivation assay. Format: cell-based, CV-1.

Data set [4] addresses T1, Peroxisome proliferator-activated receptor alpha (Homo sapiens). The description is as §1. It is filed as cell-based. Particulars: CV-1.
The subject of data set [5] is Mus musculus. The data set can be described thus: Antihyperglycemic effect in db/db mouse assessed as inhibition of blood glucose at 20 mg/kg, po after 5 days. Format: functional. Particulars: 120 h.
The test system of data set [6] is Mus musculus. The data set can be described thus: Toxicity in db/db mouse assessed as weight gain at 3 mg/kg, po after 4 days. Format: organism-based. Further details: dose 3 mg/kg, route oral. Particulars: in vivo, 96 h.
Data set [7] has as its system Mus musculus. Kind of data set: Toxicity in db/db mouse assessed as weight gain at 3 mg/kg, po after 7 days. It is filed as organism-based. Also noted: dose 3 mg/kg, route oral. Conditions: in vivo, 168 h.
In data set [8] the test system is Mus musculus. Kind of data set: Antihyperglycemic effect in db/db mouse assessed as inhibition of blood glucose at 3 mg/kg, po after 7 days. It is filed as functional. Particulars: 168 h.
Data set [9] deals with Mus musculus. Kind of data set: Toxicity in db/db mouse assessed as weight gain at 3 mg/kg, po after 11 days. Format: organism-based. Also noted: dose 3 mg/kg, route oral. Conditions: in vivo, 264 h.
The test system of data set [10] is Mus musculus. The data set can be described thus: Antihyperglycemic effect in db/db mouse assessed as inhibition of blood glucose at 3 mg/kg, po after 11 days. Format: functional. Conditions: 264 h.
Data set [11] deals with Mus musculus. The data set can be described thus: Antihyperglycemic effect in db/db mouse assessed as inhibition of blood glucose at 3 mg/kg, po after 4 days. It is filed as functional. Conditions: 96 h.
The subject of data set [12] is Mus musculus. The data set can be described thus: Antihyperglycemic effect in db/db mouse assessed as inhibition of blood glucose at 3 mg/kg, po after 5 days. It is filed as functional. Particulars: 120 h.
The test system of the next data set is CV-1. The data set can be described thus: Ratio of EC50 for human PPARalpha ligand binding domain expressed in african green monkey CV1 cells to EC50 for human PPARgamma ligand binding domain expressed in african green monkey CV1 cells. It is filed as cell-based.

The source made the active and inactive calls. The rule behind the calls is not given here.

For `CCO[C@@H](Cc1cccc(/C(C)=N/OCc2ccc(OC)cc2)c1)C(=O)O`, in data set [1], the Emax was determined as 179%. In addition, the concentration giving a half-maximal response (EC50) (commonly the concentration that produces a half-maximal response) is 0.175 µM in data set [2] and 4.06 µM in [3].

Compound `CCO[C@@H](Cc1cccc(C2=NOC(c3ccc(I)cc3)C2)c1)C(=O)O` (stereo partly drawn) registered an Emax in [1] of 162%. For the same compound, the results for the 50% effective concentration (EC50) in data set [2] and in data set [3] were 0.606 µM and 2.76 µM, respectively.

In data set [1], `CCO[C@@H](Cc1cccc(/C(C)=N/OCc2ccc(C(C)(C)C)cc2)c1)C(=O)O` came in with an Emax of 137%. The figures for the EC50 in [2] and in data set [3] were 0.279 µM and 12.1 µM, respectively.

On to `CCO[C@H](Cc1cccc(C2=NOC(Cc3ccccc3)C2)c1)C(=O)O` (stereo partly drawn), for which the Emax in data set [1] was found to be 6%. Further, in data set [2], the EC50 was found to be 41.4 µM. In [4], the result was inactive.

`CCO[C@@H](Cc1cccc(C2=NOC(c3ccc(O)cc3)C2)c1)C(=O)O` (stereo partly drawn) showed an Emax in data set [1] of 0%. For the same compound, a half-maximal effect in data set [2] (EC50) was put at 38.6 µM.

`CN(CCOc1ccc(CC2SC(=O)NC2=O)cc1)c1ccccn1` (stereo not drawn) showed an Emax in [1] of 56%.

The compound `CCO[C@H](Cc1cccc(/C(C)=N/OCc2ccccc2)c1)C(=O)O` had an Emax in data set [1] of 8%. The inhibition in vivo (usually the percentage by which the read-out fell short of the control) at 20 mg/kg in the data set with Mus musculus [5] was determined as 22.3%. Further, in [2], the EC50 was determined as 1.89 µM. The outcome in [4] was inactive.

As to `COc1ccc(OC(=O)N(CC(=O)O)Cc2ccc(OCCc3nc(-c4ccccc4)oc3C)cc2)cc1` [MURAGLITAZAR], the values for the Activity with Mus musculus [6], in the data set on Mus musculus [7] and with Mus musculus [9] were 2 g, 3.6 g and 6.3 g, respectively. Also, the inhibition in vivo at 3 mg/kg with Mus musculus [8] worked out at 67%; in the data set on Mus musculus [10] it was 68%; with Mus musculus [11], 53%.

Regarding `CCO[C@H](Cc1cccc(C2=NOC(c3ccccc3)C2)c1)C(=O)O` (stereo partly drawn), in the data set with Mus musculus [5], the inhibition in vivo at 20 mg/kg turned out to be 3%. The compound also came in with an EC50 in data set [2] of 25.4 µM. In addition, in [4], the result was inactive.

Compound `CCO[C@@H](Cc1cccc(C2=NOC(c3ccc(Cl)cc3)C2)c1)C(=O)O` (stereo partly drawn) yielded an Emax in data set [1] of 125%. Further, in the data set on Mus musculus [12], the inhibition in vivo at 3 mg/kg turned out to be 41.7%. Also, the concentration giving a half-maximal response (EC50) in data set [2] worked out at 0.816 µM; in [3], 6.78 µM.

In data set [1], `CCO[C@@H](Cc1ccc(OCCc2ccc(OS(C)(=O)=O)cc2)cc1)C(=O)O` showed an Emax of 94%.

Compound `CCO[C@@H](Cc1cccc(C2=NOC(CCc3ccccc3)C2)c1)C(=O)O` (stereo partly drawn) came in with an Emax in data set [1] of 262%. For the same compound, the Ratio EC50 in the data set on CV-1 turned out to be 1.7. Besides, the results for the 50% effective concentration (EC50) in data set [2] and in [3] were 1.85 µM and 3.08 µM, respectively.

`CCO[C@@H](Cc1cccc(C2=NOC(c3ccc(OC)cc3)C2)c1)C(=O)O` (stereo partly drawn): the Emax in data set [1] is 156%. In addition, the concentration for a half-maximal effect (EC50) came to 3.19 µM in data set [2] and 11.3 µM in data set [3].

Compound `CCO[C@@H](Cc1cccc(/C(C)=N/OCc2ccc(O)cc2)c1)C(=O)O` came in with an Emax in [1] of 58%. In addition, the half-maximal effective concentration (EC50) in [2] is 2.94 µM; in data set [3], 58.8 µM.

The compound `CCO[C@@H](Cc1cccc(-c2cc(-c3ccccc3)on2)c1)C(=O)O` registered an Emax in data set [1] of 162%. Moreover, the EC50 in data set [2] amounted to 3.29 µM; in data set [3] it was 5.6 µM.

For the compound `CCO[C@@H](Cc1cccc(C2=NOC(c3ccc(F)cc3)C2)c1)C(=O)O` (stereo partly drawn), the Emax in data set [1] was determined as 119%. Besides, the concentration giving a half-maximal response (EC50) worked out at 1.16 µM in data set [2] and 24.4 µM in [3].

`CCO[C@@H](Cc1cccc(/C(C)=N/OCc2ccc(OS(C)(=O)=O)cc2)c1)C(=O)O` had an Emax in data set [1] of 165%. Moreover, the half-maximal effective concentration (EC50) in data set [2] was found to be 1.61 µM; in data set [3], 13.1 µM.

`CCO[C@@H](Cc1cccc(C2=NOC(c3ccc(OS(C)(=O)=O)cc3)C2)c1)C(=O)O` (stereo partly drawn) registered an Emax in [1] of 107%. Also, the EC50 in data set [2] was determined as 28.1 µM; in data set [3], 37.4 µM.

As to `CCO[C@@H](Cc1cccc(/C(C)=N/OCc2ccc(C(F)(F)F)cc2)c1)C(=O)O`, in [1], the Emax was 185%. Moreover, the half-maximal effective concentration (EC50) in data set [2] turned out to be 0.046 µM; in [3], 2.95 µM.

On to `CCO[C@@H](Cc1cccc(/C(C)=N/OCc2ccc(I)cc2)c1)C(=O)O`, for which the Emax in data set [1] stood at 139%. In addition, the half-maximal effective concentration (EC50) came to 0.04 µM in [2] and 0.674 µM in data set [3].

The compound `CCO[C@@H](Cc1cccc(C2=NOC(c3ccc(Br)cc3)C2)c1)C(=O)O` (stereo partly drawn) came in with an Emax in [1] of 144%. In addition, the values for the EC50 in data set [2] and in data set [3] were 0.74 µM and 4.39 µM, respectively.

As to `CCO[C@H](Cc1cccc(-c2cc(-c3ccccc3)on2)c1)C(=O)O`, the Emax in [1] amounted to 48%. In addition, the EC50 came out at 37.4 µM in [2] and 30.4 µM in data set [3].

Compound `CCO[C@@H](Cc1cccc(/C(C)=N/OCc2ccccc2)c1)C(=O)O` returned an Emax in data set [1] of 71%. Moreover, the EC50 in data set [2] was 0.121 µM; in data set [3] it was 2.91 µM.

For `CCO[C@@H](Cc1cccc(/C(C)=N/OCc2ccccc2Cl)c1)C(=O)O`, in data set [1], the Emax was 143%. Also, the Ratio EC50 in the data set with CV-1 came to 126. In addition, the EC50 was found to be 0.026 µM in data set [2] and 3.26 µM in [3].

Consider `Cc1ccc(C)c(OCCCC(C)(C)C(=O)O)c1`, for which the Emax in [1] came out at 100%.

Consider `CCO[C@@H](Cc1cccc(C2=NOC(c3ccc(C(C)(C)C)cc3)C2)c1)C(=O)O` (stereo partly drawn), for which the Emax in [1] was determined as 138%. Further, the 50% effective concentration (EC50) in [2] was determined as 2.73 µM; in data set [3], 3.95 µM.

Regarding `CCO[C@@H](Cc1cccc(/C(C)=N/OCc2ccc(Br)cc2)c1)C(=O)O`, in [1], the Emax worked out at 150%. Further, the EC50 in data set [2] was 0.036 µM; in data set [3], 2.7 µM.

`CCO[C@@H](Cc1cccc(C2=NOC(c3ccccc3)C2)c1)C(=O)O` (stereo partly drawn) showed an Emax in data set [1] of 78%. Moreover, in the data set on CV-1, the Ratio EC50 worked out at 18. Moreover, the inhibition in vivo at 20 mg/kg in the data set on Mus musculus [5] turned out to be 27%. Further, the results for the EC50 in data set [2] and in [3] were 0.22 µM and 3.99 µM, respectively.

In data set [1], `CCO[C@H](Cc1cccc(C2=NOC(CCc3ccccc3)C2)c1)C(=O)O` (stereo partly drawn) showed an Emax of 217%. The Ratio EC50 in the data set with CV-1 was determined as 1.8. Also, the EC50 in data set [2] worked out at 25.1 µM; in data set [3], 44.5 µM.

In the case of `CCO[C@@H](Cc1cccc(C2=NOC(Cc3ccccc3)C2)c1)C(=O)O` (stereo partly drawn), in [1], the Emax came out at 104%. For the same compound, the Ratio EC50 in the data set with CV-1 is 3.1. Besides, the EC50 in data set [2] came out at 6.93 µM; in [3] it was 21.6 µM.

`CCO[C@@H](Cc1cccc(/C(C)=N/OCc2cccc(Cl)c2)c1)C(=O)O` came in with an Emax in [1] of 165%. Further, the Ratio EC50 in the data set with CV-1 is 227. Also, the EC50 in [2] is 0.01 µM; in data set [3], 2.27 µM.
